Source: patent publication US11208412B2 (DAEGU-GYEONGBUK MEDICAL INNOVATION FOUNDATION, priority 2017, dated 2021)

Experiments:
Test in all cases: Kinase selectivity, DiscoverX scanMAX Kinase assay panel (% control)
Type in all cases: binding
[1] = molecular target: T1, kinases of the scanMAX Kinase assay panel (Homo sapiens, UniProt Q8NI60); conditions: ADCK3; 1 uM
T1 construct: purchased DiscoverX Co. (contract measurement) scanMAX Kinase assay panel
Outline: (§1)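 Each enzyme is treated with drug at 1 uM in DMSO, then signal is scaled between a positive control (0%) and DMSO (100%) to give % control. Kinases with % control under 35% are scored as inhibited.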

[2] = molecular target: T2, kinases of the scanMAX Kinase assay panel (Homo sapiens, UniProt Q15835); conditions: GRK1; 1 uM
T2 construct: purchased DiscoverX Co. (contract measurement) scanMAX Kinase assay panel
T2 sequence (Q15835 1-563): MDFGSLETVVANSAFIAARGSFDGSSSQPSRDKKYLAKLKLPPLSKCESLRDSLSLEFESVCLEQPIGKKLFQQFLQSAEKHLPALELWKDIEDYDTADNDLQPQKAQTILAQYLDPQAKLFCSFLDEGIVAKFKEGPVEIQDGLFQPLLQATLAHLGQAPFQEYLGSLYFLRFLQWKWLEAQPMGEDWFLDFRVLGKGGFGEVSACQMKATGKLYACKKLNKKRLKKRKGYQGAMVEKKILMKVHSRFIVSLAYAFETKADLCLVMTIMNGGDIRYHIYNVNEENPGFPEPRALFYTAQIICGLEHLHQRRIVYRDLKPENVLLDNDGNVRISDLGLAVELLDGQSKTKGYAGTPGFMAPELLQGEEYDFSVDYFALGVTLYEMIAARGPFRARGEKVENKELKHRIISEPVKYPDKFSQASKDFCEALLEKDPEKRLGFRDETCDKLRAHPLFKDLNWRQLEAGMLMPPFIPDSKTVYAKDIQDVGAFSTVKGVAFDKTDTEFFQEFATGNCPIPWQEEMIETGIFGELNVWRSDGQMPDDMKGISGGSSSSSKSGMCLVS
Outline: as §1

[3] = molecular target: T3, kinases of the scanMAX Kinase assay panel (Homo sapiens, UniProt P42684); conditions: ABL2; 1 uM
T3 construct: purchased DiscoverX Co. (contract measurement) scanMAX Kinase assay panel
T3 sequence (P42684 whole entry): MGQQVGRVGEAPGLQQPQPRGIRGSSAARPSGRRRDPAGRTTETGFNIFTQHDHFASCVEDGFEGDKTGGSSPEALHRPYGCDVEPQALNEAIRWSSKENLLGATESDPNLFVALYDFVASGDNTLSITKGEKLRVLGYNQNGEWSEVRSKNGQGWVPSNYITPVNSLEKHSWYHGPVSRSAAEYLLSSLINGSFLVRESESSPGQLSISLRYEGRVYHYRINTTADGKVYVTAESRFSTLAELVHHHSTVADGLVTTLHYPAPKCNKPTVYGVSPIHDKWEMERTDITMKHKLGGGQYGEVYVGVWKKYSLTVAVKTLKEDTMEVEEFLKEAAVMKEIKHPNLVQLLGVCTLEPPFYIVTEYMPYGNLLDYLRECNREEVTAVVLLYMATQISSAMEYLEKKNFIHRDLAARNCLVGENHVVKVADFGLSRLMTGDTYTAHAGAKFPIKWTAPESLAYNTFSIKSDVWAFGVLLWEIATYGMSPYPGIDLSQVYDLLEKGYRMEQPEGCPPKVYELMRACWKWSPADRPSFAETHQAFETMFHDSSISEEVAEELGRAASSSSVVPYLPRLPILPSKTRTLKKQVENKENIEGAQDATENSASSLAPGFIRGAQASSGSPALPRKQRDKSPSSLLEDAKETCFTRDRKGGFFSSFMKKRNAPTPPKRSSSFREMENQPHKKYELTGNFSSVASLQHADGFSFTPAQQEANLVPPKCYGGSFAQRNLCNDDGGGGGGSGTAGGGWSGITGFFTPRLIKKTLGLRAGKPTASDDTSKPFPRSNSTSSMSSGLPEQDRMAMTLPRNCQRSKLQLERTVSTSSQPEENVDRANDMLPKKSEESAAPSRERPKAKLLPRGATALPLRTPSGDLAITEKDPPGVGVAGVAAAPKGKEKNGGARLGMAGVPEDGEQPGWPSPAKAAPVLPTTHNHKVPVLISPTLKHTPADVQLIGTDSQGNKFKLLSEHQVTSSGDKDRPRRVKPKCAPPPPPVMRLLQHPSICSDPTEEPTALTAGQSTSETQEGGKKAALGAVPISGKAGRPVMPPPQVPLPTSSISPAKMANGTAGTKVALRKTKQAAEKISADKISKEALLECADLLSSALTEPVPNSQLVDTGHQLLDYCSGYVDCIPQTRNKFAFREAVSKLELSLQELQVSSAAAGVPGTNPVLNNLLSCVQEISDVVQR
Outline: as §1

[4] = molecular target: T4, kinases of the scanMAX Kinase assay panel (Homo sapiens, UniProt Q16620); conditions: kinase TRKB; 1 uM in DMSO
T4 construct: purchased DiscoverX Co. (contract measurement) scanMAX Kinase assay panel
T4 sequence (Q16620 32-822): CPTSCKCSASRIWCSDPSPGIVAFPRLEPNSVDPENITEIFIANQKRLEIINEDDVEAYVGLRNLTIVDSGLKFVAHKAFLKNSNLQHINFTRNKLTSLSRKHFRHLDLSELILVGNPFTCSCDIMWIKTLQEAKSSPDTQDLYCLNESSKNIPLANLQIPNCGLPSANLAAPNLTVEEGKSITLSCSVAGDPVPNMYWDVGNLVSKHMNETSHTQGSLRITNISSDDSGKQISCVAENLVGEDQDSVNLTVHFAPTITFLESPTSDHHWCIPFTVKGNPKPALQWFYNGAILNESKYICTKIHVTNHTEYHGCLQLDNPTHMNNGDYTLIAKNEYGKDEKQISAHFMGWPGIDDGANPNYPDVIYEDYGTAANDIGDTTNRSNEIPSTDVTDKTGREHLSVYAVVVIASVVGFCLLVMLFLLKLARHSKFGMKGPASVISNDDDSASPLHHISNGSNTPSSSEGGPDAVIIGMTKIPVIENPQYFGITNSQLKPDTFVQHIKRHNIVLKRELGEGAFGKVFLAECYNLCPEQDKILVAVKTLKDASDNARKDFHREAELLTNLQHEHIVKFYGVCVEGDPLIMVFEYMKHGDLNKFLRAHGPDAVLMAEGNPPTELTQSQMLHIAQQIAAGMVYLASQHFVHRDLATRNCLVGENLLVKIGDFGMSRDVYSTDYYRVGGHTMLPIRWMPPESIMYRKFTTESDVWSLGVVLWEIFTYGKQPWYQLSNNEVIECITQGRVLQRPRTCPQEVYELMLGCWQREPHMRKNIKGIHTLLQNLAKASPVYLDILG
Outline: as §1

[5] = molecular target: T5, kinases of the scanMAX Kinase assay panel (Homo sapiens, UniProt Q9UBF8); conditions: PIK4CB; 1 uM
T5 construct: purchased DiscoverX Co. (contract measurement) scanMAX Kinase assay panel
T5 sequence (Q9UBF8 whole entry): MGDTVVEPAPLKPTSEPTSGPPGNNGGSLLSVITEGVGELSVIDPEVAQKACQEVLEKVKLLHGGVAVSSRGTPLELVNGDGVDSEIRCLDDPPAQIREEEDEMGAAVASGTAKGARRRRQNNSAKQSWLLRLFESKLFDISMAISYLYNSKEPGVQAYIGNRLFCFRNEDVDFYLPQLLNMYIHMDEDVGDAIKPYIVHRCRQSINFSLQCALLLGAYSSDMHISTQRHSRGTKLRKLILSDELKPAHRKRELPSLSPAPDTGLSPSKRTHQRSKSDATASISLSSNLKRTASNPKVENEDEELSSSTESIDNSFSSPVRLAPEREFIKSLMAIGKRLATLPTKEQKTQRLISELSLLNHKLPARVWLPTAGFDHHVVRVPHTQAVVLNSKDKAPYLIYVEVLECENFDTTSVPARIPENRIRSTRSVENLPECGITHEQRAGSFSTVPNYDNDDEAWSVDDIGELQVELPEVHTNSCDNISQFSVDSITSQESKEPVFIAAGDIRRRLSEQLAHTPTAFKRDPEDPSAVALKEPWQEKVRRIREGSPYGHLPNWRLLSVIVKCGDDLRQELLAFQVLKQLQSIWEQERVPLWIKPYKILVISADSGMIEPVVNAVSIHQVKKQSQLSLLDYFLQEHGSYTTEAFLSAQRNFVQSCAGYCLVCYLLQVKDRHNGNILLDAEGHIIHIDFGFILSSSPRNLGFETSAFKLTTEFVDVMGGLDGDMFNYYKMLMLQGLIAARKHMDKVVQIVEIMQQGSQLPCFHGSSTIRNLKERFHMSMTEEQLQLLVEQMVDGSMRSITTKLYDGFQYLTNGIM
Outline: as §1

[6] = molecular target: T6, kinases of the scanMAX Kinase assay panel (Homo sapiens, UniProt Q9NQU5); conditions: PAK6; 1 uM
T6 construct: purchased DiscoverX Co. (contract measurement) scanMAX Kinase assay panel
Outline: as §1

[7] = molecular target: T7, kinases of the scanMAX Kinase assay panel (Homo sapiens, UniProt Q99558); conditions: NIK; 1 uM
T7 construct: purchased DiscoverX Co. (contract measurement) scanMAX Kinase assay panel
T7 sequence (Q99558 whole entry): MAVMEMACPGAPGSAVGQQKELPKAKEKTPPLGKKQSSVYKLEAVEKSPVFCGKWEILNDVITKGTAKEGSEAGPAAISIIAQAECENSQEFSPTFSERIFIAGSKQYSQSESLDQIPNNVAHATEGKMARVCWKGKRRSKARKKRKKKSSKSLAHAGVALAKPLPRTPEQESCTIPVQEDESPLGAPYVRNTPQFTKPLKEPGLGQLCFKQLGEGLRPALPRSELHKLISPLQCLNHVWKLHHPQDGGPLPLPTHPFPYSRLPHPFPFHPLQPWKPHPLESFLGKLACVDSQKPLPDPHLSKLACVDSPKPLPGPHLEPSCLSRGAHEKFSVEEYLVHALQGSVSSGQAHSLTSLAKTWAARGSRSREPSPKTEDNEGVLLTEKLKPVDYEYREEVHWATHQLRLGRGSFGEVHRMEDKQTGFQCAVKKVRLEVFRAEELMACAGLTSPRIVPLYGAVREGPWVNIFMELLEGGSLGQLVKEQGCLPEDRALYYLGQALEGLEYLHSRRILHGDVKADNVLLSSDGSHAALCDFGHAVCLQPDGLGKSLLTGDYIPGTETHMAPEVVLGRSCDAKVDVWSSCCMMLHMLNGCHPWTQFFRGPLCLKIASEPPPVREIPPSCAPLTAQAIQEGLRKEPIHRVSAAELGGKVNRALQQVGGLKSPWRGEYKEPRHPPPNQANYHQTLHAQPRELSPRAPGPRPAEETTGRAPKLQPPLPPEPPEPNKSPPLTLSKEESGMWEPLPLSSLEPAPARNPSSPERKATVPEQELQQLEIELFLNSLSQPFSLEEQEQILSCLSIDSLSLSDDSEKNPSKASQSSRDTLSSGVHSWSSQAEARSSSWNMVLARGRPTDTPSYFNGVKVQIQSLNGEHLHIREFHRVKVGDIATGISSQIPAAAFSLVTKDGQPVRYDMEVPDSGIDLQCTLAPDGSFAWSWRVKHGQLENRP
Outline: as §1

[8] = molecular target: T8, kinases of the scanMAX Kinase assay panel (Homo sapiens, UniProt Q9P2K8, S808G); conditions: GCN2(Kin.Dom.2, S808G); 1 uM
T8 construct: purchased DiscoverX Co. (contract measurement) scanMAX Kinase assay panel
Outline: as §1

[9] = molecular target: T9, kinases of the scanMAX Kinase assay panel (Homo sapiens, UniProt P54764); conditions: EPHA4; 1 uM
T9 construct: purchased DiscoverX Co. (contract measurement) scanMAX Kinase assay panel
T9 sequence (P54764 20-986): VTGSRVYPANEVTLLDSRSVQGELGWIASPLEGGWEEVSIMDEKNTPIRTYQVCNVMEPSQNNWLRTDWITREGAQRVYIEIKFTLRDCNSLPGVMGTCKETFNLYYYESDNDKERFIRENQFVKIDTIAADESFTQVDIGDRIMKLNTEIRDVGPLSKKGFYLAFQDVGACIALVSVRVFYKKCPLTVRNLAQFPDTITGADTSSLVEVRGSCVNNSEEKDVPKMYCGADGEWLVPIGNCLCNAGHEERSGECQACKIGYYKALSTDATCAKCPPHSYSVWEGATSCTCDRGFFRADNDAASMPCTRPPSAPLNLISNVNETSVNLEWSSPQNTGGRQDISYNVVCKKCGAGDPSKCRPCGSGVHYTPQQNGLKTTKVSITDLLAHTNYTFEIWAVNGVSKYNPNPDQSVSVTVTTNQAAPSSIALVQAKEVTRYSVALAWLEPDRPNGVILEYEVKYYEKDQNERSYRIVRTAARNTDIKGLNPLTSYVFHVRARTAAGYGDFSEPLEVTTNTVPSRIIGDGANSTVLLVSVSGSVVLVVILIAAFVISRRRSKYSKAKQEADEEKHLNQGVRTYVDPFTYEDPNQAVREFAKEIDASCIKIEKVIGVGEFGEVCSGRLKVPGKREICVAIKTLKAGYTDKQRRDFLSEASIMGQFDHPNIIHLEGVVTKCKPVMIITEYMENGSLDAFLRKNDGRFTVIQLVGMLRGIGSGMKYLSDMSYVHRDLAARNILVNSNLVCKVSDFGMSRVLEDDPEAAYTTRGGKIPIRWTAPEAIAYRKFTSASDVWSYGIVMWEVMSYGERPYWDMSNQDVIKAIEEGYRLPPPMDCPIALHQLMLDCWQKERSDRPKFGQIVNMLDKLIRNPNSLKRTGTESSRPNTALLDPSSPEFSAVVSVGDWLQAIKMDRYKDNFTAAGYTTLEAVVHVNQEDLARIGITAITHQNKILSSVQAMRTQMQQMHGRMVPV
Outline: as §1

[10] = molecular target: T10, kinases of the scanMAX Kinase assay panel (Homo sapiens, UniProt O43293); conditions: DAPK3; 1 uM
T10 construct: purchased DiscoverX Co. (contract measurement) scanMAX Kinase assay panel
Outline: as §1

[11] = molecular target: T11, kinases of the scanMAX Kinase assay panel (Homo sapiens, UniProt Q9UIK4); conditions: DAPK2; 1 uM
T11 construct: purchased DiscoverX Co. (contract measurement) scanMAX Kinase assay panel
T11 sequence (Q9UIK4 whole entry): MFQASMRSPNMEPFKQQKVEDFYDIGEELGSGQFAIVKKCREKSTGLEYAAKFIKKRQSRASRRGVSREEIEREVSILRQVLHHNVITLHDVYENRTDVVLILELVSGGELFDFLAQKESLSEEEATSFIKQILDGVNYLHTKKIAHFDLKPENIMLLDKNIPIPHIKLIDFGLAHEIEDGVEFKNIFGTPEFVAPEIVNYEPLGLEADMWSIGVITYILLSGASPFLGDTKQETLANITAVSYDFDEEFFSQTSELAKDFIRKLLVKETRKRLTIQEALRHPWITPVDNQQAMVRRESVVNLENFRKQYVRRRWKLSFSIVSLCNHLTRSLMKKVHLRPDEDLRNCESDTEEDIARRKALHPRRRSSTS
Outline: as §1

[12] = molecular target: T12, kinases of the scanMAX Kinase assay panel (Homo sapiens, UniProt P00533, DEL746-750); conditions: EGFR(E746-A750de1); 1 uM
T12 construct: purchased DiscoverX Co. (contract measurement) scanMAX Kinase assay panel
Outline: as §1

[13] = molecular target: T13, kinases of the scanMAX Kinase assay panel (Homo sapiens, UniProt P36888); conditions: 1 uM
T13 construct: purchased DiscoverX Co. (contract measurement) scanMAX Kinase assay panel
T13 sequence (P36888 27-993): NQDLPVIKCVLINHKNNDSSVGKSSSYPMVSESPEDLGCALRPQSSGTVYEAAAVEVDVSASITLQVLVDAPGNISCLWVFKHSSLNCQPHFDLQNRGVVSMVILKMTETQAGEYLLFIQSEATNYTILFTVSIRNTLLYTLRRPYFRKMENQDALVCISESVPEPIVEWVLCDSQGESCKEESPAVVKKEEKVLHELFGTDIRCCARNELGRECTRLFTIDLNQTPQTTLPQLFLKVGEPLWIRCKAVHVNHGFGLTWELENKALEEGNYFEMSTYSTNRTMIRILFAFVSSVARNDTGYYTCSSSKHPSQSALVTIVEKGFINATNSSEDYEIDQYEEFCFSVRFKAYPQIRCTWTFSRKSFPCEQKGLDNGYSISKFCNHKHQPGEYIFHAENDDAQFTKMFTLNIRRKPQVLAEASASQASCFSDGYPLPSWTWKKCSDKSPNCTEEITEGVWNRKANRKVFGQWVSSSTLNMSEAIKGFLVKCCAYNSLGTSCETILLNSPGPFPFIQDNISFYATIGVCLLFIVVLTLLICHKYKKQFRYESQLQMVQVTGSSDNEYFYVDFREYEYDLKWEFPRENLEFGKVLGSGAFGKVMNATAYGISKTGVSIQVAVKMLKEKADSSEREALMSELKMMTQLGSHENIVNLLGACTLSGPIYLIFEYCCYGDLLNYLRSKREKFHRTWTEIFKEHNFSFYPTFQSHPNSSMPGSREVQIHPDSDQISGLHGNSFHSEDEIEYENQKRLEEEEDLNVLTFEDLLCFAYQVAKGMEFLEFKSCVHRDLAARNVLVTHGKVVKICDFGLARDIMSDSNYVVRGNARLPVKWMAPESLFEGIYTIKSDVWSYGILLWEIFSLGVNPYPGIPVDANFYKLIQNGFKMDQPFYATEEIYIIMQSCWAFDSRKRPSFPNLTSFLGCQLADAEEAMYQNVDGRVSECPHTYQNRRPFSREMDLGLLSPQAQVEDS
Outline: as §1

SMILES	remaining binding at 1 µM [1] [%]	remaining binding at 1 µM [2] [%]	remaining binding at 1 µM [3] [%]	remaining binding at 1 µM [4] [%]	remaining binding at 1 µM [5] [%]	remaining binding at 1 µM [6] [%]	remaining binding at 1 µM [7] [%]	remaining binding at 1 µM [8] [%]	remaining binding at 1 µM [9] [%]	remaining binding at 1 µM [10] [%]	remaining binding at 1 µM [11] [%]	remaining binding at 1 µM [12] [%]	remaining binding at 1 µM ([13]; FLT3-autoinhibited) [%]	remaining binding at 1 µM ([13]; FLT3) [%]
CNc1nc(Nc2ccc(C(=O)N3CCOCC3)cc2OC)nc2[nH]cc(C#N)c12 [Example 1, 2-((2-methoxy-4-(morpholine-4-carbonyl)phenyl)amino)-4-(methylamino)-7H-pyrrolo[2,3-d]pyrimidine-5-carbonitrile]	94	72	99	61	61	76	3.7	93	93	12	11	97	45	86
CC1(Nc2nc(Nc3cnn([C@H]4CCN(C5COC5)C[C@@H]4F)c3Cl)nc3[nH]cc(C#N)c23)CC1 [Example 52, 2-((5-chloro-1-((3S,4S)-3-fluoro-1-(oxetane-3-yl)piperidine-4-yl)-1H-pyrazole-4-yl)amino)((1-methylcyclopropyl)amino)-7H-pyrrolo[2,3-d]pyrimidine-5-carbonitrile]	98	36	34	7.5	60	8.3	7.4	33	75	8.4	12	59	0.3	0.05
CCNc1nc(Nc2ccc(C(=O)N3CCC(N4CCOCC4)CC3)cc2OC)nc2[nH]cc(C(F)(F)F)c12 [Example 104, (4-((4-(ethylamino)-5-(trifluoromethyl)-7H-pyrrolo[2,3-d]pyrimidine-2-yl)amino)-3-methoxyphenyl)(4-morpholinopiperidine-1-yl)methanone]	100	67	100	100	99	91	16	64	100	56	35	100	76	65
